Data: ChEMBL document CHEMBL1154198, “Chemical genetics of Plasmodium falciparum” (Nature, 2010)

What was measured:
Plasmodium falciparum [1] = test: ST_JUDE: Plasmodium falciparum 3D7 EC50 (uM) as measured by SYBR green dye; assay type: functional, organism-based
Plasmodium falciparum [2] = test: ST_JUDE: Plasmodium falciparum K1 EC50 (uM) as measured by SYBR green dye; assay type: functional, organism-based

| SMILES | EC50 (Plasmodium falciparum [1]) | EC50 (Plasmodium falciparum [2]) |
| --- | --- | --- |
| CCOCCn1c(CN(Cc2ccccc2)Cc2ccccc2)nc2c1c(=O)n(C)c(=O)n2C | > 15 µM | > 15 µM |
| COc1ccc(Cl)cc1NC(=O)CSc1nc(-c2ccccc2Cl)ns1 | 1.43 µM | 2.66 µM |
| O=C(CSc1ccc2nnc(-c3cccc(F)c3)n2n1)Nc1cccc(F)c1 | > 15 µM | 1.08 µM |
| CCCCCC/N=C1\CC(C)(C)CC(O)=C1C(=O)CCCN1C(=O)c2ccccc2C1=O | > 15 µM | > 15 µM |
| COC(=O)c1c(S(=O)(=O)N2CCCC2)sc2c1CCN(CCC(C)c1ccccc1)C2 (configuration not stated) | 4.39 µM | 4.78 µM |
| Cc1ccc(CN2CCN(Cc3c(C)nn(C)c3Cl)CC2CCO)cc1 (configuration not stated) | > 15 µM | > 15 µM |
| COCCn1/c(=N/C(=O)CSCC(=O)Nc2cc(C)on2)sc2cc(OC)ccc21 | > 15 µM | > 15 µM |
| Cc1cccc(/C=C/c2ccc3cccc(O)c3n2)c1O | 4.68 µM | 1.33 µM |
| CC(=O)Oc1ccc(Cl)cc1/C=C/c1cc(OC(C)=O)c2ccccc2n1 | > 15 µM | 1.5 µM |
| COc1cccc(Nc2nc(N3CCN(CCO)CC3)nc3c2cnn3-c2ccccc2)c1 | 3.31 µM | 4.71 µM |
| CC(C)CCNCC(O)CON=C1c2ccccc2-c2ccccc21 (configuration not stated) | 1.71 µM | 0.735 µM |
| COc1ccc(C2C(C(=O)Nc3cnc4ccccc4c3)c3ccccc3C(=O)N2C2CCCCC2)cc1 (configuration not stated) | 1.63 µM | 3.37 µM |
| O=C(Nc1ccccc1O)c1ccc(-c2ccc(Cl)cc2Cl)o1 | 2.46 µM | > 15 µM |
| COc1cc2c(cc1OC)C(C(=O)Nc1ccc(C(C)C)cc1)C(c1cccs1)N(C)C2=O (configuration not stated) | > 15 µM | 3.45 µM |
| Cc1cccc(CN2C(=O)/C(=C\c3ccc(C(=O)NC4CCCC4)cc3)Sc3ccccc32)c1 | 3.99 µM | 4.69 µM |
| CCOc1cccc(C2CC(=O)NC3=C2C(=O)CC(c2ccccc2Cl)C3)c1 (configuration not stated) | 3.72 µM | 3.11 µM |
| COc1ccc(Nc2cc(C)nc(Nc3ccc(NS(=O)(=O)c4cccc(F)c4)cc3)n2)cc1 | 2.05 µM | 7.31 µM |
| Cc1ccc(Nc2cc(C)nc(Nc3ccc(NS(=O)(=O)c4cccc(Cl)c4)cc3)n2)cc1 | 1.46 µM | > 15 µM |
| CCCC(=O)N1CCN(c2ccc(NC(=O)c3cccc([N+](=O)[O-])c3)cc2Cl)CC1 | > 15 µM | > 15 µM |
| CCOCCCNC(=O)c1cc2c(-c3cccc(OC)c3)nn(C)c2s1 | > 15 µM | > 15 µM |
| CC(C)(C)c1cc(C(=O)Cn2c(NCCO)nc3ccccc32)cc(C(C)(C)C)c1O | > 15 µM | > 15 µM |
| CCC(=O)NC(c1ccc(Cl)cc1)c1ccc2cccnc2c1O (configuration not stated) | 2.05 µM | 1.81 µM |

| SMILES | EC50 (Plasmodium falciparum [1]) | EC50 (Plasmodium falciparum [2]) |
| --- | --- | --- |
| Cc1ccccc1Nc1nc(NCc2ccco2)c2ccccc2n1 | 3.55 µM | > 15 µM |
| CCOc1ccc2c(c1)CN(Cc1ccc(Cl)cc1)CO2 | 1.49 µM | 0.284 µM |
| Cc1cc(N2CCN(C)CC2)nc(N2CCN(C(=O)c3ccc(C(C)(C)C)cc3)CC2)n1 | > 15 µM | > 15 µM |
| CCOC(=O)c1ccc(-n2[nH]c(-c3ccccc3)cc2=O)cc1 | > 15 µM | 8.96 µM |
| CCN(CC)c1cc(C)c2cc(NC(=O)c3ccc(Cl)c([N+](=O)[O-])c3)ccc2n1 | > 15 µM | > 15 µM |
| CCc1c(C)nc(-n2nc(C)cc2NC(=O)c2cccc(Br)c2)nc1O | > 15 µM | > 15 µM |
| CN1C=CC(=Cc2sc3ccccc3[n+]2C)C=C1 | 0.873 µM | 0.389 µM |
| CC(C)CC(C)N1CCC(n2nccc2NC(=O)Nc2ccccc2Cl)CC1 (configuration not stated) | 8.23 µM | > 15 µM |
| CCCCCCn1c(N)c(C(=O)OC)c2nc3ccccc3nc21 | > 15 µM | > 15 µM |
| CCOc1ccccc1CNC(=O)C1c2ccccc2C(=O)N(CC(C)C)C1c1cccs1 (configuration not stated) | 1.43 µM | 1.49 µM |
| COc1ccc(CN2CCN(CC(C)(C)C)C(CCO)C2)c(O)c1 (configuration not stated) | 7.57 µM | 3.73 µM |
| CC1CC(C)CN(C(=O)c2ccc(Cl)cc2Cl)C1 (configuration not stated) | 1.32 µM | > 15 µM |
| CCc1ccc(C2c3c(-c4ccccc4O)n[nH]c3C(=O)N2CCCOC(C)C)cc1 (configuration not stated) | > 15 µM | > 15 µM |
| CCc1cccc2c(C#N)cn(CCOc3ccccc3F)c12 | 1.26 µM | 0.973 µM |
| CCN1CCN(CCCNC(=O)c2ccc3c(c2)sc2nc(-c4ccc(C)cc4)cn23)CC1 | 1.14 µM | 1.89 µM |
| CCCC(=O)NC(c1ccc(OC)cc1)c1ccc2cccnc2c1O (configuration not stated) | 1.65 µM | 2.65 µM |
| CCCc1cc(O)nc(Nc2ccc(Cl)c(C(F)(F)F)c2)n1 | 3.09 µM | 2.84 µM |
| O=C(N/N=C/c1cc(Cl)cc(Cl)c1O)NC12CC3CC(CC(C3)C1)C2 | > 15 µM | > 15 µM |
| O=C(Nc1cccc(Cl)c1)Nc1ccccc1OC(F)(F)C(F)F | 3.06 µM | 1.32 µM |
| O=C(N/N=C/c1ccc([N+](=O)[O-])o1)c1ccc(O)cc1 [NIFUROXAZIDE] | > 15 µM | 3.77 µM |
| CC(C)/N=C1\C(=O)c2ccccc2C(O)=C1Cl | 1.23 µM | 0.53 µM |
| CCOC(=O)c1oc2ccccc2c1NC(=O)c1ccc(C)c([N+](=O)[O-])c1 | > 15 µM | > 15 µM |

| SMILES | EC50 (Plasmodium falciparum [1]) | EC50 (Plasmodium falciparum [2]) |
| --- | --- | --- |
| CC(C)c1ccc(CN(Cc2ccco2)C(=O)COc2ccccc2Cl)cc1 | 7.43 µM | > 15 µM |
| COC(=O)C1=C(C(=O)OC)C2(OC1c1cccc(F)c1)C(=O)c1ccccc1C2=O (configuration not stated) | 3.97 µM | > 15 µM |
| Cc1ccc(NC(=O)CSc2nc3c(cnn3CCO)c(=O)[nH]2)cc1 | > 15 µM | 1.91 µM |
| CCc1cc2c(=O)c(-c3ccc(OC(C)C)cc3)coc2cc1OC(C)=O | > 15 µM | 4.25 µM |
| CC(Cc1ccccc1)NC1=NS(=O)(=O)c2cc([N+](=O)[O-])ccc21 (configuration not stated) | 1.58 µM | > 15 µM |
| Cc1onc(-c2ccccc2Cl)c1C(=O)Nc1cc(Cl)ccc1Cl | > 15 µM | > 15 µM |
| Cc1ccc(/C(O)=C/C=N/c2cc([N+](=O)[O-])ccc2O)cc1 | > 15 µM | 1.69 µM |
| COc1ccc(CN2CCCN(C)CC2)cc1OCCC1CCCCN1C(=O)/C=C/c1cccs1 (configuration not stated) | 3.98 µM | 1.48 µM |
| O=C(c1cccs1)N(Cc1cccnc1)c1nc2c(Cl)cccc2s1 | > 15 µM | 3.84 µM |
| COc1ccccc1N1CCN(Cc2cc(COC(C)C)c3cccnc3c2O)CC1 | 5.28 µM | > 15 µM |
| CCOc1cccc2sc(N(Cc3cccnc3)C(=O)C3CCCCC3)nc12 | 3.04 µM | 2.23 µM |
| CCCCC(=O)NC(c1ccc(N(CC)CC)cc1)c1ccc2cccnc2c1O (configuration not stated) | 1.65 µM | 3.01 µM |
| C=CCNc1c2c(nc3ccccc13)CCC2 | 3.24 µM | 1.15 µM |
| Oc1c(C(Nc2ccccn2)c2ccc(Br)cc2)ccc2cccnc12 (configuration not stated) | 1.22 µM | 2.84 µM |
| NNc1nc(Nc2ccc(F)cc2)nc(N2CCOCC2)n1 | 7.07 µM | 5.15 µM |
| CCOC(=O)c1ccc(Nc2nc3nonc3nc2O)cc1 | > 15 µM | > 15 µM |
| COC(=O)c1cn(NC(=O)c2cccc(F)c2)c(=O)c2ccccc12 | 6.66 µM | > 15 µM |
| CCOc1ccc(CCNC(=O)Nc2ccc(F)cc2)cc1OCC | 4.48 µM | > 15 µM |
| CCCCC(O)(c1ccc(Cl)cc1)C(CN1CCOCC1)c1ccc(Cl)cc1 (configuration not stated) | 4.01 µM | 1.64 µM |
| CCO/C(O)=C1\C(C)=NC2=C(C(=O)CC(c3ccc(OC)c(OC)c3)C2)C1c1cccc([N+](=O)[O-])c1 (configuration not stated) | > 15 µM | > 15 µM |
| O=C(Nc1ccc(F)c(F)c1)c1ccc(=O)n(Cc2cccc([N+](=O)[O-])c2)c1 | > 15 µM | > 15 µM |
| Cc1ccc(CN2CCN(c3nc4c(c(=O)[nH]c(=O)n4C)n3Cc3ccc(C)cc3)CC2)cc1 | > 15 µM | > 15 µM |

| SMILES | EC50 (Plasmodium falciparum [1]) | EC50 (Plasmodium falciparum [2]) |
| --- | --- | --- |
| CC(C)(C)c1ccc(-c2nc(-c3ccncc3)no2)cc1 | > 15 µM | > 15 µM |
| Cc1ccc(Nc2cc(C)nc(N3CCN(C(=O)Nc4cccc(Cl)c4)CC3)n2)cc1 | > 15 µM | > 15 µM |
| Cc1ccc2nc(NNC(=O)c3ccc(S(=O)(=O)N(C)C)cc3)sc2c1 | 5.03 µM | 5.39 µM |
| CCOc1cc(/C=N/N=C(N)N)ccc1OCc1ccccc1 | 0.867 µM | 6.56 µM |
| CCOC(=O)N1CCN(C(=O)Nc2cc(C(F)(F)F)cc(C(F)(F)F)c2)CC1 | 2.05 µM | > 15 µM |
| CCCCCOc1ccc(NC2=C(N3CCCCC3)C(=O)c3ccccc3C2=O)cc1 | 0.0689 µM | 0.057 µM |
| O=[N+]([O-])c1cccc(C2Nc3ccccc3-c3nc4ccccc4n32)c1 (configuration not stated) | 3.69 µM | 4.27 µM |
| COc1cc(OC)cc(-c2nnc(NC(=O)c3cccc(S(C)(=O)=O)c3)o2)c1 | > 15 µM | > 15 µM |
| c1cncc(CN2CCN(Cc3cccc4ccccc34)CC2)c1 | > 15 µM | > 15 µM |
| Cc1c(C(=O)Nc2ccc(Cl)cc2Cl)cccc1[N+](=O)[O-] | > 15 µM | > 15 µM |
| CCCN1C(=O)c2[nH]nc(-c3c(C)cc(C)cc3O)c2C1c1ccc(OC)c(OC)c1 (configuration not stated) | > 15 µM | > 15 µM |
| O=C(COc1ccccc1)NC(c1ccc(Cl)cc1)c1cc(Cl)c2cccnc2c1O (configuration not stated) | 1.83 µM | 1.68 µM |
| CCCCc1ccc(NC(=O)CSc2nc3c(c(=O)n2C)SC(C)C3)cc1 (configuration not stated) | 2.93 µM | 2.05 µM |
| CC(C)OC(=O)c1cc(NC(=S)Nc2ccc([N+](=O)[O-])cc2)cc(C(=O)OC(C)C)c1 | > 15 µM | 1.55 µM |
| O=[N+]([O-])c1ccc(S(=O)(=O)N2CCN(C3CCC(c4ccccc4)CC3)CC2)cc1 (configuration not stated) | > 15 µM | > 15 µM |
| CN(C)S(=O)(=O)c1ccc(C(=O)NNc2nc3ccc(F)cc3s2)cc1 | 6.05 µM | 4.27 µM |
| CCOc1ccc(Nc2nc(N)c3ccccc3n2)cc1 | 3.23 µM | > 15 µM |
| CCOc1ccccc1NC(=O)C(C)Oc1cccc(Br)c1 (configuration not stated) | > 15 µM | > 15 µM |
| CCOc1cc(CN(C)Cc2nnc(SCc3ccccc3C)n2CC2CCCO2)ccc1OC (configuration not stated) | 2.29 µM | 2.42 µM |
| O=C(O)c1cccc(NC2=C(N3CCCCC3)C(=O)c3ccccc3C2=O)c1 | > 15 µM | 4.82 µM |
